Where two headings read alike, the source gives them in different places.
B1: TIRC7 protein: in vitro translated T-cell immune response cDNA 7 (TIRC7) protein (protein, UniProt Q13488 1-830, looked up)
V-type proton ATPase 116 kDa …: MGSMFRSEEVALVQLFLPTAAAYTCVSRLGELGLVEFRDLNASVSAFQRRFVVDVRRCEELEKTFTFLQEEVRRAGLVLPPPKGRLPAPPPRDLLRIQEETERLAQELRDVRGNQQALRAQLHQLQLHAAVLRQGHEPQLAAAHTDGASERTPLLQAPGGPHQDLRVNFVAGAVEPHKAPALERLLWRACRGFLIASFRELEQPLEHPVTGEPATWMTFLISYWGEQIGQKIRKITDCFHCHVFPFLQQEEARLGALQQLQQQSQELQEVLGETERFLSQVLGRVLQLLPPGQVQVHKMKAVYLALNQCSVSTTHKCLIAEAWCSVRDLPALQEALRDSSMEEGVSAVAHRIPCRDMPPTLIRTNRFTASFQGIVDAYGVGRYQEVNPAPYTIITFPFLFAVMFGDVGHGLLMFLFALAMVLAENRPAVKAAQNEIWQTFFRGRYLLLLMGLFSIYTGFIYNECFSRATSIFPSGWSVAAMANQSGWSDAFLAQHTMLTLDPNVTGVFLGPYPFGIDPIWSLAANHLSFLNSFKMKMSVILGVVHMAFGVVLGVFNHVHFGQRHRLLLETLPELTFLLGLFGYLVFLVIYKWLCVWAARAASAPSILIHFINMFLFSHSPSNRLLYPRQEVVQATLVVLALAMVPILLLGTPLHLLHRHRRRLRRRPADRQEENKAGLLDLPDASVNGWSSDEEKAGGLDDEEEAELVPSEVLMHQAIHTIEFCLGCVSNTASYLRLWALSLAHAQLSEVLWAMVMRIGLGLGREVGVAAVVLVPIFAAFAVMTVAILLVMEGLSAFLHALRLHWVEFQNKFYSGTGYKLSPFTFAATDD
modifications: in vitro translated
notes: in vitro translated T-cell immune response cDNA 7 (TIRC7) protein

Key:
[1] = tested on: PHA-stimulated PBMC; assay: Radioactive proliferation assay, incorporation of 3H-thymidine, TIRC7-peptides; type: cell-based, human; details: PHA stimulation, 48 h, 3H-thymidine incorporation
Description: PBMC of healthy donors were isolated according to the Ficoll-Paque density centrifugation protocol. Samples of 50000 PBMC's/well were stimulated with PHA (1 μg/ml) and incubated for 48 h at 5% CO2, 37° C. in presence of TIRC7-peptides (see FIG. 4(B)) and controls (BSA) in a total volume of […]. Samples were run in triplicates on 96 well-microtiter-plates (MTP's). After 48 h 0.5 μCi ^3H-thymidine per well were added and the cells were reincubated for additional 18 h. Cells were harvested and lysed using a cell harvester and collected on nitrocellulose-filter-MTP's. Plates were dried at room temperature for 3 h. To enhance the radioactive signal produced by the samples a scintillation fluid was added and counts per minute were measured with a beta counter.

[2] = tested on: activated T-cells; details: alloactivation in mixed lymphocyte culture (MLR) or mitogens, Utku et al., Immunity 1998, cited from earlier work

Molecule | inhibition of proliferation of PHA-stimulated PBMC ([1]; FIG. 5) | inhibition of proliferation of PHA-stimulated PBMC ([1]; FIG. 5, listed as SEQ ID NO: 11) | suppression of proliferation of T-cells [2] | suppression of proliferation of T-cells ([2]; listed as protein TIRC7)
P4: TIRC7-derived peptide (FIG. 4(B)), the one of 6 without significant inhibition of proliferation (VEFQNKFYSGTGYK; listed as Homo sapiens) | except peptide P4 all TIRC7-peptides inhibited proliferation | weaker if any activity | – | –
B1 | – | – | efficiently suppress in a dose dependent manner | signifincantly suppressed
